Measured values: ChEMBL document CHEMBL1201862, “PubChem BioAssay data set” (2004)
Active and inactive are the calls of the source.

Legend:
BJ [1] = experiment: BJ-TERT-LT-ST fibroblast viability loss – cell-based, RAS-independent, luminescence, dose response (AID 1935); type: functional; details: Homo sapiens;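 further: BJ fibroblasts immortalized with TERT plus LT and ST oncogenes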
BJ [2] = experiment: cells; type: functional, cell-based; details: Homo sapiens
[3] = DRD fibroblast viability loss – cell-based, non-viral oncogenic, luminescence, dose response (AID 1934); type: functional; details: Homo sapiens
[4] = HEK-293T viability loss after treatment – luminescence, T-cell screen hits, cytotoxicity control for TCR NF-kB inhibitor project, dose response (AID 489026); type: functional, cell-based;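 further: cells exposed to compound about 14 hours before the viability readout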
BJ [5] = experiment: BJ-TERT fibroblast viability loss – cell-based, RAS-independent, luminescence, dose response (AID 1933); type: functional; details: Homo sapiens
[6] = molecular target: DNA dC->dU-editing enzyme APOBEC-3G (Homo sapiens, UniProt Q9HC16); type: functional;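 further: Dose-response counterscreen measuring inhibition of APOBEC3G DNA deaminase activity, run while confirming APOBEC3A inhibitors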
[7] = molecular target: DNA dC->dU-editing enzyme APOBEC-3A (Homo sapiens, UniProt P31941); experiment: Dose Response confirmation of small molecule APOBEC3A DNA Deaminase Inhibitors via a fluorescence-based single-stranded DNA deaminase assay. [Related pubchem assays (depositor defined):AID493011, AID493024]; type: functional
[8] = molecular target: T1, Short transient receptor potential channel 4 (Mus musculus, UniProt Q9QUQ5); experiment: calcium entry via TRPC4 opening agents – cell-based, HEK293 TRPC4/mu-opioid, Fluo-4 calcium, dose response (AID 434937); type: functional
T1 sequence (Q9QUQ5 whole entry): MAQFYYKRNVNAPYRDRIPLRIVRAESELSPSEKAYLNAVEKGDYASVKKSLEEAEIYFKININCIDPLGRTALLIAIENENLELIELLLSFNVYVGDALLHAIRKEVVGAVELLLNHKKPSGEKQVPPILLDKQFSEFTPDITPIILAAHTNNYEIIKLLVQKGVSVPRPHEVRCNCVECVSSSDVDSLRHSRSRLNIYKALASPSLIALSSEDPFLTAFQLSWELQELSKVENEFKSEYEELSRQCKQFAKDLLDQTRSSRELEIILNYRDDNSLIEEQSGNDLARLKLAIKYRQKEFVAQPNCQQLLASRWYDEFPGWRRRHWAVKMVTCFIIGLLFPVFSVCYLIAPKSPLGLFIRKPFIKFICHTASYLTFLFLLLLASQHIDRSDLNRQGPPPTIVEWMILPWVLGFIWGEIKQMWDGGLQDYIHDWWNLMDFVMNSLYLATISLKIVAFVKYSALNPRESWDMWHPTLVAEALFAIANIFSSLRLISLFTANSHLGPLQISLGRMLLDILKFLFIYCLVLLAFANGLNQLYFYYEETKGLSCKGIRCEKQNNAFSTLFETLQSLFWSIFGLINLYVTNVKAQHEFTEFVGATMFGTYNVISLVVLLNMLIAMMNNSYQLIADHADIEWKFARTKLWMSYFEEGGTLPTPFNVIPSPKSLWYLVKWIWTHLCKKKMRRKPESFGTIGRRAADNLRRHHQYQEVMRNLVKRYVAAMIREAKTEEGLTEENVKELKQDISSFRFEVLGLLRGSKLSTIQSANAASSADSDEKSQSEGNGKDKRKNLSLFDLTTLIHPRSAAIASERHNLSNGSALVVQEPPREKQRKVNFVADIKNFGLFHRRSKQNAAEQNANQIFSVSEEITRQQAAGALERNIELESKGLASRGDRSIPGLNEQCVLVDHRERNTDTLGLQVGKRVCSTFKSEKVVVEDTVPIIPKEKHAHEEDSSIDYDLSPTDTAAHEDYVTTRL

[9] = blockers of HIV-1 ZM109 envelope-driven cell-cell fusion – HeLa effector, CEM target cells, luciferase, cherry-pick, dose response (AID 652058); type: functional, cell-based;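 further: luciferase signal from HIV-1 Env mediated cell-cell fusion of effector and target cells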
[10] = non-specific 3'UTR reporter inhibition in Clone20-Shn3RL – cell-based, Renilla luciferase, cherry-picked, counter-screen for Shn3 inhibitor project, dose response (AID 624133); type: functional
[11] = reduction of Shn3 3'UTR-driven luciferase in osteoblasts – cell-based, Clone20 osteoblasts, firefly luciferase, cherry-picked, dose response (AID 624132); type: functional;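 further: firefly luciferase luminescence from reporter carrying the Shn3 3'UTR in osteoblasts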
[12] = HIV-1 AD8 envelope cell-cell fusion blockers – cherry-pick, dose response (AID 652062); type: functional, cell-based;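 further: luciferase signal from cell-cell fusion driven by HIV-1 clade B AD8 Env; potency is for inhibitors of fusion seen as a drop in luminescence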
[13] = molecular target: T2, Small ubiquitin-related modifier 1 (Homo sapiens, UniProt P63165); experiment: SUMO1 protein-protein binding blockers, potency – biochemical, FRET, dose response (AID 624383); type: functional; details: read-out: IC50_Mean
[14] = molecular target: T2, Small ubiquitin-related modifier 1; experiment: SUMO1 protein interaction blockers, potency – biochemical, fluorescence polarization, uHTS hits, dose response (AID 624382); type: functional; details: read-out: IC50_Mean
[15] = molecular target: Induced myeloid leukemia cell differentiation protein Mcl-1 (Homo sapiens, UniProt Q07820); type: functional
Protein RecA = molecular target: T3, Protein RecA (Mycobacterium tuberculosis, UniProt P9WHJ3); experiment: Fluorescence Cell-Free Homogeneous Dose Retest to Identify Inhibitors of RecA-Intein Splicing Activity. [Related pubchem assays (depositor defined):AID2097, AID2223, AID489010, AID492950]; type: functional
T3 sequence (P9WHJ3 whole entry): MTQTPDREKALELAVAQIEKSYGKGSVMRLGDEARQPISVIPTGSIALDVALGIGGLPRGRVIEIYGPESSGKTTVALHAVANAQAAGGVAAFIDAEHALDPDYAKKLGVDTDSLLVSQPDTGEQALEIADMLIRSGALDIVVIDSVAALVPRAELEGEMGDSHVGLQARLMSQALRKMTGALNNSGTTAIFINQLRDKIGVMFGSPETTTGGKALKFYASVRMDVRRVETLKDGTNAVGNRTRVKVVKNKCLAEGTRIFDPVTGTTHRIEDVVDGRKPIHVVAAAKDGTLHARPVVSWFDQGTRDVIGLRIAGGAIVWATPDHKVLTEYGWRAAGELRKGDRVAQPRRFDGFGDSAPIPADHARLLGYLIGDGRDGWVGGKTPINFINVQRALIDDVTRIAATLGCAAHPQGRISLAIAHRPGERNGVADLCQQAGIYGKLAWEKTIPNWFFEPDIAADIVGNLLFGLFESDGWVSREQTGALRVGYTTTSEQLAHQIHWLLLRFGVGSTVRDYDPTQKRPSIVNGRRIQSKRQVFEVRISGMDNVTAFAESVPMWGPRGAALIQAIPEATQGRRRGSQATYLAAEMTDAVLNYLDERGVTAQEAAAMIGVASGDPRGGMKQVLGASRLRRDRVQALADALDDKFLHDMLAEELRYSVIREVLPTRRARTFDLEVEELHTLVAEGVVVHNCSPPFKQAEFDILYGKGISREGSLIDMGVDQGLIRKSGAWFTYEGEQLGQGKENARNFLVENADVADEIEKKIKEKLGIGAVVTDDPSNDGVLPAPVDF

[16] = molecular target: T4, Histone-lysine N-methyltransferase NSD2 (Homo sapiens, UniProt O96028); type: biochemical
T4 sequence (O96028 whole entry): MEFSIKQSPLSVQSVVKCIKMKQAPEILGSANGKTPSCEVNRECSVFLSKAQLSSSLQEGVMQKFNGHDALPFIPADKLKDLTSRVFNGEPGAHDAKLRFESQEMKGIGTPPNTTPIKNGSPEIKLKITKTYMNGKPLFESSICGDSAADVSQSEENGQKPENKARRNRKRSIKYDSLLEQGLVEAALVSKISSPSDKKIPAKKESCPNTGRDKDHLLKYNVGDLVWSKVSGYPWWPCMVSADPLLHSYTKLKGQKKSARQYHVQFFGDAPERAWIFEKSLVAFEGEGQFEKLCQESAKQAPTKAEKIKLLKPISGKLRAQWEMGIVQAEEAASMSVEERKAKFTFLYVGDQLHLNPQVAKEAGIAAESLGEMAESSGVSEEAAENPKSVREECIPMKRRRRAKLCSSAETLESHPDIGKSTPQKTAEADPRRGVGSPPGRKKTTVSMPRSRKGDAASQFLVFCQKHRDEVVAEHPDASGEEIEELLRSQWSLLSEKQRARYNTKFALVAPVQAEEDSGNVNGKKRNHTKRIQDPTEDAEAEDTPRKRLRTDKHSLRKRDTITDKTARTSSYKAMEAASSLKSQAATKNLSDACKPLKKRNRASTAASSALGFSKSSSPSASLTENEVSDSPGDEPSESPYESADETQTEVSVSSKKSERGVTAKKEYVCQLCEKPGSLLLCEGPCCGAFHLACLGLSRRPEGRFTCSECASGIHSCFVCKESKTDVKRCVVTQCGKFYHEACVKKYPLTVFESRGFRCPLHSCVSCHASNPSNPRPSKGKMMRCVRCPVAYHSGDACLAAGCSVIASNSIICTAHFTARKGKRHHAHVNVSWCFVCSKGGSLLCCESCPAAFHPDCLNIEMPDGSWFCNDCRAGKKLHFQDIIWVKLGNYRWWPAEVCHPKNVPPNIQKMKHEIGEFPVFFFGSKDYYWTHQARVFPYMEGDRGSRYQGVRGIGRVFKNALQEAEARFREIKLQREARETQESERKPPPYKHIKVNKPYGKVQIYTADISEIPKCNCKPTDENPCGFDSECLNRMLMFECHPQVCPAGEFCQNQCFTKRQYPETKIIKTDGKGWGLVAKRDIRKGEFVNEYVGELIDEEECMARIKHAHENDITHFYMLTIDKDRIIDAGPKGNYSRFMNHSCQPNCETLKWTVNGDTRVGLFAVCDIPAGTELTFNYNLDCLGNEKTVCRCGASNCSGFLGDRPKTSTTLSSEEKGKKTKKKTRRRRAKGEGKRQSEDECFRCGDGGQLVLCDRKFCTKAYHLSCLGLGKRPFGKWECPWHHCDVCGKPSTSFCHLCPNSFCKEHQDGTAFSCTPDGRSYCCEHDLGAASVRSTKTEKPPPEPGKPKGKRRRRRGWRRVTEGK

Large T antigen = Large T antigen (Simian virus 40, UniProt P03070); type: functional, Betapolyomavirus macacae;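 further: Confirmatory-stage PubChem screen for compounds that inhibit SV40 T antigen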
[17] = molecular target: T5, Replicative DNA helicase DnaB (Mycobacterium tuberculosis, UniProt P9WMR3); experiment: DnaB intein splicing inhibitors, dose response, biochemical, cell-free fluorescence (AID 449749); type: functional
T5 sequence (P9WMR3 whole entry): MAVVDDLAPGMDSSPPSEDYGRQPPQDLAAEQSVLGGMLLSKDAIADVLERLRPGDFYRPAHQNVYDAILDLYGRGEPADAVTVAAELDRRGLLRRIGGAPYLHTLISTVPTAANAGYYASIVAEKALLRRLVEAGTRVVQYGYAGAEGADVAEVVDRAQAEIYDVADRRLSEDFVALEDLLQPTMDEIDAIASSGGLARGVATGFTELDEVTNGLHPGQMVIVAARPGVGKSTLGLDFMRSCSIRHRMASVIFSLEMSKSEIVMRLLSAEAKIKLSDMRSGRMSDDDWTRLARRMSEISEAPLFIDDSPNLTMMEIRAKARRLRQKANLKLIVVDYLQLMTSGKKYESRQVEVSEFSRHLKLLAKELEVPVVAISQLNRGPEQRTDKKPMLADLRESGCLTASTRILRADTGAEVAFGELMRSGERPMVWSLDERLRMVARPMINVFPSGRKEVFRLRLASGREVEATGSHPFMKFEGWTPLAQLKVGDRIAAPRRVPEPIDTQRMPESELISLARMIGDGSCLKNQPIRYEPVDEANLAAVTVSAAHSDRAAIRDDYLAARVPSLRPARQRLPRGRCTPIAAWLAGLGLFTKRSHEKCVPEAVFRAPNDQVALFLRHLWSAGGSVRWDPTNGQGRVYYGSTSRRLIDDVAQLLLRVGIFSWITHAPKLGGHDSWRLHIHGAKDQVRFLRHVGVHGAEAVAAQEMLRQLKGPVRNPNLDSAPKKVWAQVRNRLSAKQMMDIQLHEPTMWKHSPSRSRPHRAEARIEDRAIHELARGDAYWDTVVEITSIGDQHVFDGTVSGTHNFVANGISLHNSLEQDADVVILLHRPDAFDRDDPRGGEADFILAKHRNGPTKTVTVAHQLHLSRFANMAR

Chain of DNA dC->dU-editing enzyme APOBEC-3A (P31941 whole entry): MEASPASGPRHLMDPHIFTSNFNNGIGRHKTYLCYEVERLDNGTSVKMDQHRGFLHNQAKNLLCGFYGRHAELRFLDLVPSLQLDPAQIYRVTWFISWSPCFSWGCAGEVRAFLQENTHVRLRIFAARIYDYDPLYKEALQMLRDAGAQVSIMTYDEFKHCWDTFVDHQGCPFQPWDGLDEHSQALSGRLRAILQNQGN
Chain of DNA dC->dU-editing enzyme APOBEC-3G (Q9HC16 whole entry): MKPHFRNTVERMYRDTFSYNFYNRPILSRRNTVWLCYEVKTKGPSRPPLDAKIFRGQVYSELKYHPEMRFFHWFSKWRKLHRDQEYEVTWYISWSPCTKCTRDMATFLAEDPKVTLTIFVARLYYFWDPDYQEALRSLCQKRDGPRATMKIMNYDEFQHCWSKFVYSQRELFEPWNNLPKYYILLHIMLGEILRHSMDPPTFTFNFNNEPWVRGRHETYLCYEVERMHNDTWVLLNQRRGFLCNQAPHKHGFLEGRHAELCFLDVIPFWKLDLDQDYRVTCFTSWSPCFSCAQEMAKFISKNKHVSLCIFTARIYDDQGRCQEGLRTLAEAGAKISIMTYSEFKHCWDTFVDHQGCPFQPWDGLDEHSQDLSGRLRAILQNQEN
T2 sequence (P63165 whole entry): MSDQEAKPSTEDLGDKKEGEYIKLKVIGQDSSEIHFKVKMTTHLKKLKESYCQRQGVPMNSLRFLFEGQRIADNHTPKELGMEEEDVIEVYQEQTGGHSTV
Chain of Large T antigen (P03070 whole entry): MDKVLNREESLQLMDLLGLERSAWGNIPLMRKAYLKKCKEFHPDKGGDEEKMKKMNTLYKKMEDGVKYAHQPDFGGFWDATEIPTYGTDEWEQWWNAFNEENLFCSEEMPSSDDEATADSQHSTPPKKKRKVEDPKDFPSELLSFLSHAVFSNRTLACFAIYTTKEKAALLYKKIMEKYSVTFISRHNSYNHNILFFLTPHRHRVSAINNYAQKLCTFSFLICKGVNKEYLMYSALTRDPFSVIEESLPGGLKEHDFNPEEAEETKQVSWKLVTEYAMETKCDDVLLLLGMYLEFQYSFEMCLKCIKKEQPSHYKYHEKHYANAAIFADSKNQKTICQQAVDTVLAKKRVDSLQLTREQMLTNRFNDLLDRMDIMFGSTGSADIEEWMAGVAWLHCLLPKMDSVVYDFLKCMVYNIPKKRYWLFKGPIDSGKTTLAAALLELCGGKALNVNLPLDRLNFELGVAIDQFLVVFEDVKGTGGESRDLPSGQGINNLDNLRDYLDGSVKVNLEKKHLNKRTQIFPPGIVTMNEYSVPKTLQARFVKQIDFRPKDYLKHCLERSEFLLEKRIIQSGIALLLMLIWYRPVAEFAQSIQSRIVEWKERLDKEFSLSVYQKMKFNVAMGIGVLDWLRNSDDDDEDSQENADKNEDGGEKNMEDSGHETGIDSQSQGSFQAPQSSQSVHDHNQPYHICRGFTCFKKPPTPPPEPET
Chain of Induced myeloid leukemia cell differentiation protein Mcl-1 (Q07820 whole entry): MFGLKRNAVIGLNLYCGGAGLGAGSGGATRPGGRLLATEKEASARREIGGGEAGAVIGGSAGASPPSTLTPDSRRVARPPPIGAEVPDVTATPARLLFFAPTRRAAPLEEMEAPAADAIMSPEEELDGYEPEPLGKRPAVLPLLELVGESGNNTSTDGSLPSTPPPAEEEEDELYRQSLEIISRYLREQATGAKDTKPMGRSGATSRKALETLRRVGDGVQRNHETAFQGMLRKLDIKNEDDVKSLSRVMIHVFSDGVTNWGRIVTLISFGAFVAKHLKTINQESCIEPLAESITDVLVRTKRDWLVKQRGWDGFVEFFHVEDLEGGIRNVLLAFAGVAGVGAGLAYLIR

In the case of `CCc1cc2c(s1)N1Cc3ccccc3C(C(=O)c3cccc([N+](=O)[O-])c3)=C1NC2=O`, the EC50 (BJ [1]) is reported as > 150 µM (inconclusive), the EC50 (BJ [2]) is reported as > 150 µM (not active) and the EC50 [3] is reported as > 150 µM (not active). The IC50 [4] was > 80 µM (inactive) and the EC50 (BJ [5]) was > 150 µM (not active).

In the case of `COc1ccc2c(/C=C/c3cc[n+](C)cc3)c[nH]c2c1`, the IC50 [6] is reported as 6.31 µM (active) and the IC50 [7] is reported as 6.12 µM (active).

With `CCCc1nc2sc3c(SCC(=O)NCc4ccco4)ncnc3c2c2c1CCC2` the IC50 [6] was 25.3 µM (active) and the IC50 [7] was 15.8 µM (active).

For `CCOC(=O)C1(CCOc2ccccc2)CCN(Cc2ccc(OC)c(O)c2)CC1`, the EC50 [8] was 0.473 µM (active).

With `O=C(O)Cc1ccc(S(=O)(=O)N2CCCC2)s1` the IC50 [6] was 66.5 µM (active) and the IC50 [7] was 17.4 µM (active).

In the case of `O=C(Nc1ccc(S(=O)(=O)N2CCN(Cc3ccccc3)CC2)cc1)c1cnccn1`, the AC50 [9] is reported as < 0.26 µM (active), the AC50 [10] is reported as 4.15 µM (active) and the AC50 [11] is reported as 1.65 µM (active). The IC50 [4] was > 80 µM (inactive) and the AC50 [12] was 4.9 µM (active).

For `CC(=Nc1cc(C)cc(C)c1)N(C)CCNS(=O)(=O)c1ccc(Cl)cc1`, the IC50 [6] was 4.92 µM (active) and the IC50 [7] was 2.67 µM (active).

With `COc1cc(C)c(NC(=O)C2CCN(S(=O)(=O)c3cccs3)CC2)cc1OC` the IC50 [6] was 13.9 µM (active) and the IC50 [7] was 12 µM (active).

With `CN1C(=O)/C(=C/c2ccc(-c3ccccc3[N+](=O)[O-])o2)S/C1=N\c1ccc(Cl)c(C(=O)O)c1` the IC50 [13] was 17.7 µM (active), the IC50 [14] was > 66.6 µM (inactive) and the IC50 [15] was 14 µM (active). For the same compound, the EC50 (Protein RecA) was 5.51 µM (active), the AC50 [16] was 4.58 µM (active) and the IC50 (Large T antigen) was 52.8 µM (active). The AC50 [17] was 10.6 µM (active).
